Measurements published in patent US9981940B2, “Aryl sulfide derivatives and aryl sulfoxide derivatives as acaricides and insecticides” (BAYER CROPSCIENCE AKTIENGESELLSCHAFT, priority 2013, dated 2018).

How the values were obtained:
[1] = test system: Tetranychus urticae; assay: Tetranychus urticae spray test, OP-resistant (TETRUR); format: in vivo; conditions: after 6 days
How it was run: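 Mortality as % efficacy (0% = no mites killed) read 6 days after spraying. Formulation: active ingredient in acetone/dimethylformamide plus emulsifier, diluted with emulsifier-containing water, applied to Phaseolus vulgaris leaf discs carrying every life stage of OP-resistant spider mites.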

[2] = log P by HPLC (OECD Guideline 117), method [b] neutral range; format: physicochemical; conditions: HPLC; for logP[b]: method [b] neutral range
Description: (§1) The log P values were determined analogously to OECD Guideline 117 (EC Directive 92/69/EEC) by HPLC (high-performance liquid chromatography) using reversed-phase columns (C 18), by the following methods:
[b] The LC-MS determination in the neutral range is effected at pH 7.8 with 0.001 molar aqueous ammonium hydrogencarbonate solution and acetonitrile as eluents; linear gradient from 10% acetonitrile to 95% acetonitrile.

[3] = log P by HPLC (OECD Guideline 117), method [a] acidic range; format: physicochemical; conditions: for logP[a]: HPLC, method [a] acidic range; for chromatographic logP: reversed-phase C18 HPLC column, acidic range
Description: as §1
[a] The LC-MS determination in the acidic range is effected at pH 2.7 with 0.1% aqueous formic acid and acetonitrile (contains 0.1% formic acid) as eluents; linear gradient from 10% acetonitrile to 95% acetonitrile.

Compound | efficacy ([1]; application rate of 500 g/ha) [%] | logP[b] [2] | logP[a] [3] | other results
Cc1cc(C)c(-n2nc(C(F)(F)F)n(C3CC3)c2=O)cc1SCC(F)(F)F [Example 48] | 100 | 4.09 | 4.13 | –
COc1nn(-c2cc([S+]([O-])CC(F)(F)F)c(C)cc2F)c(=O)n1C1CC1 (single isomer, unassigned) [Example 379] | 90 | 2.09 | 2.14 | –
C=CCn1c(C(F)(F)F)nn(-c2cc(SCC(F)(F)F)c(C)cc2F)c1=O [Example 345] | 100 | 4.04 | 4.02 | –
Cc1cc(F)c(-n2nc(C(F)(F)F)n(C(C)(C)C)c2=O)cc1SCC(F)(F)F [Example 67] | 90 | 4.66 | 4.78 | –
CCC[S+]([O-])c1nn(-c2cc([S+]([O-])CC(F)(F)F)c(C)cc2F)c(=O)n1C (stereo not shown) [Example 246] | 100 | 1.95 | 1.99 | –
CCSc1nn(-c2cc([S+]([O-])CC(F)(F)F)c(C)cc2F)c(=O)n1CC (racemic) [Example 293] | 90 | 2.72 | 2.76 | –
Cc1cc(F)c(-n2nnn(-c3ccc(Cl)cc3)c2=O)cc1[S+]([O-])CC(F)(F)F (stereo not shown) [Example 307, 1-(4-Chlorophenyl)-4-{2-fluoro-4-methyl-5-[(2,2,2-trifluoroethyl)sulphinyl]phenyl}-1,4-dihydro-5H-tetrazol-5-one] | – | – | – | pest or weed control at 500 g/ha ([1]; Tetranychus urticae, 144 h, application rate of 500 g/ha, read-out: efficacy): 100%; chromatographic logP ([2]; reversed-phase C18 HPLC column, neutral range, pH 7.8): 3.49; chromatographic logP ([3]; pH 2.7, HPLC method [a], read-out: logP[a]): 3.53; chromatographic logP ([3]; pH 2.7, HPLC, pH 2.7, read-out: log P[a]): 3.53
Cc1cc(F)c(-n2nc(C(C)(C)C)oc2=O)cc1SCC(F)(F)F [Example 449] | 90 | 4.25 | 4.30 | –
COCCOC1=CC(=O)N(c2cc([S+]([O-])CC(F)(F)F)c(C)cc2F)C1 (stereo not shown) [Example 335] | 90 | 1.86 | 1.92 | –
COc1nn(-c2cc([S+]([O-])CC(F)(F)F)c(Br)cc2F)c(=O)n1C1CC1 (stereo not shown) [Example 172] | 100 | 2.53 | 2.57 | –
Cc1cc(F)c(-n2nc(-c3cccc(F)c3)n(C3CC3)c2=O)cc1SCC(F)(F)F [Example 69] | – | 3.89 | 3.98 | efficacy ([1]; application rate of 100 g/ha): 100%
CCOC1=CC(=O)N(c2cc([S+]([O-])CC(F)(F)F)c(C)cc2F)C1 (stereo not shown) [Example 334] | – | 2.14 | 2.19 | efficacy ([1]; application rate of 20 g/ha): 90%
Cc1cc(F)c(-n2nc(N(C)C)n(N)c2=O)cc1[S+]([O-])CC(F)(F)F (stereo not shown) [Example 221] | 100 | 1.60 | 1.63 | –
Cc1cc(F)c(-n2nc(OCC3CC3)n(C3CC3)c2=O)cc1SCC(F)(F)F [Example 134] | 90 | 3.90 | 3.99 | –
CSc1nn(-c2cc(SCC(F)(F)F)c(C)cc2F)c(=O)n1C1CC1 [Example 259] | 100 | 3.60 | 3.56 | –
COc1nn(-c2cc(SCC(F)(F)F)c(Br)cc2F)c(=O)n1C1CC1 [Example 173] | 100 | 3.36 | 3.43 | –
Cc1cc(F)c(-n2nc(SC(C)C)n(C)c2=O)cc1SCC(F)(F)F [Example 276] | 100 | 3.80 | 3.86 | –
Cc1cc(F)c(-n2nc(Br)n(C(C)(C)C)c2=O)cc1SCC(F)(F)F [Example 438] | 100 | 4.17 | 4.24 | –
Cc1cc(F)c(-n2nc(SCC3CC3)n(C)c2=O)cc1[S+]([O-])CC(F)(F)F (racemic) [Example 280] | 100 | 2.75 | 2.82 | –
Cc1cc(F)c(-n2nc(C)n(C3CC3)c2=O)cc1SCC(F)(F)F [Example 42] | 90 | 2.73 | 2.76 | –
